Experimental findings from ChEMBL document CHEMBL1146288, “Thiosialoside clusters using carbosilane dendrimer core scaffolds as a new class of influenza neuraminidase inhibitors” (Bioorg Med Chem Lett, 2007) are described below.

The nature of assay [1]: Inhibition of influenza A virus A/PR/8/34(H1N1)) sialidase.
Assay [2] in a line: Inhibition of influenza A virus A/Memphis/1/71(H3N2)) sialidase. Further details: species or system Influenza A virus (A/Memphis/1/1971(H3N2)).

Structures are written as SMILES.

Broadly, the IC50 is the concentration that gives 50% inhibition. For `CC(=O)N[C@@H]1[C@@H]([C@H](O)[C@H](O)CO)O[C@](SCCCCCOCCCSCCC[Si](CCCSCCCOCCCCCS[C@@]2(C(=O)O)C[C@@H](O)[C@H](NC(C)=O)[C@@H]([C@H](O)[C@H](O)CO)O2)(CCCSCCCOCCCCCS[C@@]2(C(=O)O)C[C@@H](O)[C@H](NC(C)=O)[C@@H]([C@H](O)[C@H](O)CO)O2)CCCSCCCOCCCCCS[C@@]2(C(=O)O)C[C@@H](O)[C@H](NC(C)=O)[C@@H]([C@H](O)[C@H](O)CO)O2)(C(=O)O)C[C@H]1O`, the half-inhibitory concentration (IC50) in assay [1] and in assay [2] was 5 mM throughout.

Consider `CC(=O)N[C@@H]1[C@@H]([C@H](O)[C@H](O)CO)O[C@](SCCCCCOCCCSCCC[Si](CCCSCCCOCCCCCS[C@@]2(C(=O)O)C[C@@H](O)[C@H](NC(C)=O)[C@@H]([C@H](O)[C@H](O)CO)O2)(CCCSCCCOCCCCCS[C@@]2(C(=O)O)C[C@@H](O)[C@H](NC(C)=O)[C@@H]([C@H](O)[C@H](O)CO)O2)CCC[Si](C)(C)CCC[Si](CCCSCCCOCCCCCS[C@@]2(C(=O)O)C[C@@H](O)[C@H](NC(C)=O)[C@@H]([C@H](O)[C@H](O)CO)O2)(CCCSCCCOCCCCCS[C@@]2(C(=O)O)C[C@@H](O)[C@H](NC(C)=O)[C@@H]([C@H](O)[C@H](O)CO)O2)CCCSCCCOCCCCCS[C@@]2(C(=O)O)C[C@@H](O)[C@H](NC(C)=O)[C@@H]([C@H](O)[C@H](O)CO)O2)(C(=O)O)C[C@H]1O`, for which the IC50 was 5 mM in assay [1] and 1.25 mM in assay [2].

For the compound `CC(=O)N[C@@H]1[C@@H]([C@H](O)[C@H](O)CO)O[C@](SCCCCCOCCCSCCC[Si](CCCSCCCOCCCCCS[C@@]2(C(=O)O)C[C@@H](O)[C@H](NC(C)=O)[C@@H]([C@H](O)[C@H](O)CO)O2)(CCCSCCCOCCCCCS[C@@]2(C(=O)O)C[C@@H](O)[C@H](NC(C)=O)[C@@H]([C@H](O)[C@H](O)CO)O2)c2ccccc2)(C(=O)O)C[C@H]1O`, the IC50 in assay [1] and in assay [2] was 5 mM each time.
